Measurements taken from patent US10758534B2 (Vertex Pharmaceuticals Incorporated, priority 2014, dated 2020).

target: T1, F508del (Homo sapiens, UniProt P13569, DEL508-508); assay: Protocol 1: membrane potential optical assay (FLIPR III, voltage sensing dye), identification of potentiator compounds; type: cell-based; conditions: Table 3, compounds of Table 1
T1 construct: expressed in transfected cells
Procedure, shortened: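 NIH3T3 F508del cells, 27° C × 24 hrs; compound/DMSO pretreat → redistribution dye load → single forskolin addition with Cl⁻ gradient (gluconate-substituted bath, HEPES pH 7.4). FLIPR III membrane-potential fluorescence read.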

T1 sequence (P13569 with tags, fused parts or gaps DEL508-508): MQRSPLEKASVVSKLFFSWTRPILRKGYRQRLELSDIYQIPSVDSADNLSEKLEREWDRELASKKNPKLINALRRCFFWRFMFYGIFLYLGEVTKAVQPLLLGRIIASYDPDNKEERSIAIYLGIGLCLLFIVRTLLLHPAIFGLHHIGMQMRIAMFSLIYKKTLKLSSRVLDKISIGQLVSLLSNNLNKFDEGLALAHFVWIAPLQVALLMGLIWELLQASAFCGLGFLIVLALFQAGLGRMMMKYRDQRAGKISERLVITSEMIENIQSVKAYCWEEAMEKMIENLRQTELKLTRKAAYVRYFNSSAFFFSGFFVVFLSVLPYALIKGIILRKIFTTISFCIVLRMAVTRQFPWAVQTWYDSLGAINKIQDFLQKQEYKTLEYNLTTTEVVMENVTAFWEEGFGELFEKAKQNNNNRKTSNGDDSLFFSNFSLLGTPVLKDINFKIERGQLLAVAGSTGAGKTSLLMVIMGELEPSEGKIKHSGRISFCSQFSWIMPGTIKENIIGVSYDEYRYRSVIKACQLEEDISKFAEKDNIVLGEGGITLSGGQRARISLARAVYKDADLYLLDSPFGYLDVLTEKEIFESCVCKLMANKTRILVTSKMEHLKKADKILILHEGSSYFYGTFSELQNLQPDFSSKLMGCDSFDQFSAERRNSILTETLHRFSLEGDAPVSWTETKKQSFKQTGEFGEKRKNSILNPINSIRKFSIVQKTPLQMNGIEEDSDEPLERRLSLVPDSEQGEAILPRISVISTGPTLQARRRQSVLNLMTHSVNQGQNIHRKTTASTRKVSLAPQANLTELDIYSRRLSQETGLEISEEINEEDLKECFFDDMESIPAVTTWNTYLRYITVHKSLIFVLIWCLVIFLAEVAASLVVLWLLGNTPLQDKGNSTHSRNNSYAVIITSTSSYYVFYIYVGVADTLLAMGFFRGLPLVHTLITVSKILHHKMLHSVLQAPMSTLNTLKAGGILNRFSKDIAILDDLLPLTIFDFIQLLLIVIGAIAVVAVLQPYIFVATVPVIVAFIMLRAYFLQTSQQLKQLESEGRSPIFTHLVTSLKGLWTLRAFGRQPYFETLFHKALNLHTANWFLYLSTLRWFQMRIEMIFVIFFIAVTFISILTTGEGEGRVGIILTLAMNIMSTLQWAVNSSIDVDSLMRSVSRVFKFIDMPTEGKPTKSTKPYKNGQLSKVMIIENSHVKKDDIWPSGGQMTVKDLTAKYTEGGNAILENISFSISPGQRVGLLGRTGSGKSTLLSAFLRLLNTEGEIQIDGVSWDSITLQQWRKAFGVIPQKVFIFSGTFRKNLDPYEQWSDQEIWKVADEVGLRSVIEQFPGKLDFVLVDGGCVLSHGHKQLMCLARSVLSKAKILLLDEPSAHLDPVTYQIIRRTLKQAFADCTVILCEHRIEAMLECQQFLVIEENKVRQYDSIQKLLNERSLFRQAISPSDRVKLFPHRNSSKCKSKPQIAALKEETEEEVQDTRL

Row | Compound | EC30
1 | Cc1cc(Cl)cc(-c2cnc(N3CC(C)CC3(C)C)c(C(=O)NS(=O)(=O)c3cccc(N)n3)c2)c1 (stereo not shown) [Compound 1963, N-[(6-amino-2-pyridyl)sulfonyl]-5-(3-chloro-5-methyl-phenyl)-2-(2,2,4-trimethylpyrrolidin-1-yl)pyridine-3-carboxamide] | +++ (“+++” means <3 uM)
2 | CCOc1ccc(C)cc1-c1ccc(C(=O)NS(=O)(=O)c2cccnc2N)c(N2C[C@@H](C)CC2(C)C)n1 [Compound 1964, N-[(2-amino-3-pyridyl)sulfonyl]-6-(2-ethoxy-5-methyl-phenyl)-2-[(4S)-2,2,4-trimethylpyrrolidin-1-yl]pyridine-3-carboxamide] | +++ (“+++” means <3 uM)
3 | COc1ccccc1COc1cccc(S(=O)(=O)NC(=O)c2cccnc2N2CC(C)CC2(C)C)n1 (stereo not shown) [Compound 1965, N-[[6-[(2-methoxyphenyl)methoxy]-2-pyridyl]sulfonyl]-2-(2,2,4-trimethylpyrrolidin-1-yl)pyridine-3-carboxamide] | +++ (“+++” means <3 uM)
4 | CC(Oc1nc(N2C[C@@H](C)CC2(C)C)c(C(=O)NS(=O)(=O)c2cccc(N)n2)cc1F)C1CCCC1 (stereo partly drawn) [Compound 1966, N-[(6-amino-2-pyridyl)sulfonyl]-6-(1-cyclopentylethoxy)-5-fluoro-2-[(4S)-2,2,4-trimethylpyrrolidin-1-yl]pyridine-3-carboxamide] | +++ (“+++” means <3 uM)
5 | Cc1ccc(-c2ccc(C(=O)NS(=O)(=O)N3CC[C@H](N)C3)c(N3C[C@@H](C)CC3(C)C)n2)c(F)c1 [Compound 1967, N-[(3S)-3-aminopyrrolidin-1-yl]sulfonyl-6-(2-fluoro-4-methyl-phenyl)-2-[(4S)-2,2,4-trimethylpyrrolidin-1-yl]pyridine-3-carboxamide] | ++ (“++” means between 3 uM and 10 uM)
6 | CC1CN(c2ncccc2C(=O)NS(=O)(=O)c2cccc(NCc3ccc(Cl)cc3Cl)n2)C(C)(C)C1 (stereo not shown) [Compound 1968, N—[[6-[(2,4-dichlorophenyl)methylamino]-2-pyridyl]sulfonyl]-2-(2,2,4-trimethylpyrrolidin-1-yl)pyridine-3-carboxamide] | +++ (“+++” means <3 uM)
7 | CC(C)COc1cccc(-c2ccc(C(=O)NS(=O)(=O)c3cccc(N)n3)c(N3C[C@@H](C)CC3(C)C)n2)c1 [Compound 1969, N-[(6-amino-2-pyridyl)sulfonyl]-6-(3-isobutoxyphenyl)-2-[(4S)-2,2,4-trimethylpyrrolidin-1-yl]pyridine-3-carboxamide] | +++ (“+++” means <3 uM)
8 | CCC(C)Oc1ccn(-c2ccc(C(=O)NS(=O)(=O)c3cccnc3N)c(N3C[C@@H](C)CC3(C)C)n2)n1 (stereo partly drawn) [Compound 1970, N-[(2-amino-3-pyridyl)sulfonyl]-6-(3-sec-butoxypyrazol-1-yl)-2-[(4S)-2,2,4-trimethylpyrrolidin-1-yl]pyridine-3-carboxamide] | +++ (“+++” means <3 uM)
9 | CC1CN(c2ncccc2C(=O)NS(=O)(=O)c2cccc(NC3CCC(C(C)(C)C)CC3)n2)C(C)(C)C1 (stereo not shown) [Compound 1971, N—[[6-[(4-tert-butylcyclohexyl)amino]-2-pyridyl]sulfonyl]-2-(2,2,4-trimethylpyrrolidin-1-yl)pyridine-3-carboxamide] | +++ (“+++” means <3 uM)
10 | COc1cccc(COc2cccc(S(=O)(=O)NC(=O)c3cccnc3N3CC(C)CC3(C)C)n2)c1 (stereo not shown) [Compound 1972, N—[[6-[(3-methoxyphenyl)methoxy]-2-pyridyl]sulfonyl]-2-(2,2,4-trimethylpyrrolidin-1-yl)pyridine-3-carboxamide] | +++ (“+++” means <3 uM)
11 | CC(C)COc1ccccc1-c1cnc(N2CC(C)CC2(C)C)c(C(=O)NS(=O)(=O)c2cccc(N)n2)c1 (stereo not shown) [Compound 1979, N-[(6-amino-2-pyridyl)sulfonyl]-5-(2-isobutoxyphenyl)-2-(2,2,4-trimethylpyrrolidin-1-yl)pyridine-3-carboxamide] | +++ (“+++” means <3 uM)

Results, then the compound that gave them:

Row | EC30 | Compound
12 | +++ (“+++” means <3 uM) | Cc1cc(-c2ccc(C(=O)NS(=O)(=O)c3cccc(N)n3)c(N3C[C@@H](C)CC3(C)C)n2)cnc1OCCOC(C)C [Compound 1973, N-[(6-amino-2-pyridyl)sulfonyl]-6-[6-(2-isopropoxyethoxy)-5-methyl-3-pyridyl]-2-[(4S)-2,2,4-trimethylpyrrolidin-1-yl]pyridine-3-carboxamide]
13 | +++ (“+++” means <3 uM) | CC(C)(C)c1ccc(C(=O)NS(=O)(=O)c2cccc(N)n2)c(N2CCC(C3CC3)C2(C)C)n1 (stereo not shown) [Compound 1974]
14 | +++ (“+++” means <3 uM) | C[C@@H]1CN(c2nc(-n3ccc(OCC(C)(C)C)n3)ccc2C(=O)NS(=O)(=O)c2cccnc2N)C(C)(C)C1 [Compound 1975, N-[(2-amino-3-pyridyl)sulfonyl]-6-[3-(2,2-dimethylpropoxy)pyrazol-1-yl]-2-[(4S)-2,2,4-trimethylpyrrolidin-1-yl]pyridine-3-carboxamide]
15 | +++ (“+++” means <3 uM) | CC(=O)Nc1ncccc1S(=O)(=O)NC(=O)c1ccc(-c2ccc(OC(C)C)nc2)nc1N1C[C@@H](C)CC1(C)C [Compound 1976, N-[(2-acetamido-3-pyridyl)sulfonyl]-6-(6-isopropoxy-3-pyridyl)-2-[(4S)-2,2,4-trimethylpyrrolidin-1-yl]pyridine-3-carboxamide]
16 | +++ (“+++” means <3 uM) | CC1CN(c2ncccc2C(=O)NS(=O)(=O)c2cccc(Nc3ccc(OC(F)(F)F)cc3)n2)C(C)(C)C1 (stereo not shown) [Compound 1977, N—[[6-[4-(trifluoromethoxy)anilino]-2-pyridyl]sulfonyl]-2-(2,2,4-trimethylpyrrolidin-1-yl)pyridine-3-carboxamide]
17 | +++ (“+++” means <3 uM) | CC1CN(c2ncccc2C(=O)NS(=O)(=O)c2cccc(N(C)CCc3ccccc3)n2)C(C)(C)C1 (stereo not shown) [Compound 1978, N—[[6-[methyl(phenethyl)amino]-2-pyridyl]sulfonyl]-2-(2,2,4-trimethylpyrrolidin-1-yl)pyridine-3-carboxamide]
18 | +++ (“+++” means <3 uM) | COc1ncccc1-c1ccc(C(=O)NS(=O)(=O)c2cccnc2N)c(N2C[C@@H](C)CC2(C)C)n1 [Compound 1980, N-[(2-amino-3-pyridyl)sulfonyl]-6-(2-methoxy-3-pyridyl)-2-[(4S)-2,2,4-trimethylpyrrolidin-1-yl]pyridine-3-carboxamide]
19 | +++ (“+++” means <3 uM) | C[C@@H]1CN(c2nc(-c3cc(F)c(F)cc3F)ccc2C(=O)NS(=O)(=O)c2ccc[nH]c2=O)C(C)(C)C1 [Compound 1981, N-[(2-oxo-1H-pyridin-3-yl)sulfonyl]-6-(2,4,5-trifluorophenyl)-2-[(4S)-2,2,4-trimethylpyrrolidin-1-yl]pyridine-3-carboxamide]
20 | ++ (“++” means between 3 uM and 10 uM) | C[C@@H]1CN(c2nc(-c3ccc4[nH]ccc4c3)ccc2C(=O)NS(=O)(=O)c2ccc[nH]c2=O)C(C)(C)C1 [Compound 1982, 6-(1H-indol-5-yl)-N-[(2-oxo-1H-pyridin-3-yl)sulfonyl]-2-[(4S)-2,2,4-trimethylpyrrolidin-1-yl]pyridine-3-carboxamide]
21 | +++ (“+++” means <3 uM) | CC1CN(c2ncccc2C(=O)NS(=O)(=O)c2cccc(NCc3ccccc3Cl)n2)C(C)(C)C1 (stereo not shown) [Compound 1983, N—[[6-[(2-chlorophenyl)methylamino]-2-pyridyl]sulfonyl]-2-(2,2,4-trimethylpyrrolidin-1-yl)pyridine-3-carboxamide]
22 | ++ (“++” means between 3 uM and 10 uM) | C[C@@H]1CN(c2nc(C3=CCCN(C(=O)c4cccc(Cl)c4)C3)ccc2C(=O)NS(=O)(=O)c2cccc(N)n2)C(C)(C)C1 [Compound 1984, N-[(6-amino-2-pyridyl)sulfonyl]-6-[1-(3-chlorobenzoyl)-3,6-dihydro-2H-pyridin-5-yl]-2-[(4S)-2,2,4-trimethylpyrrolidin-1-yl]pyridine-3-carboxamide]
23 | ++ (“++” means between 3 uM and 10 uM) | CCCCCN1CCN(c2cccc(S(=O)(=O)NC(=O)c3cccnc3N3CC(C)CC3(C)C)n2)CC1 (stereo not shown) [Compound 1985, N—[[6-(4-pentylpiperazin-1-yl)-2-pyridyl]sulfonyl]-2-(2,2,4-trimethylpyrrolidin-1-yl)pyridine-3-carboxamide]
24 | +++ (“+++” means <3 uM) | CC1CN(c2ncccc2C(=O)NS(=O)(=O)c2cccc(N3Cc4cccc5cccc(c45)C3)n2)C(C)(C)C1 (stereo not shown) [Compound 1986, N—[[6-(1,3-dihydrobenzo[de]isoquinolin-2-yl)-2-pyridyl]sulfonyl]-2-(2,2,4-trimethylpyrrolidin-1-yl)pyridine-3-carboxamide]
25 | +++ (“+++” means <3 uM) | CC1CN(c2ncccc2C(=O)NS(=O)(=O)c2cccc(N3CCC(c4ccccc4)CC3)n2)C(C)(C)C1 (stereo not shown) [Compound 1987, N—[[6-(4-phenyl-1-piperidyl)-2-pyridyl]sulfonyl]-2-(2,2,4-trimethylpyrrolidin-1-yl)pyridine-3-carboxamide]
26 | +++ (“+++” means <3 uM) | CC1CCCC(Oc2cccc(S(=O)(=O)NC(=O)c3cccnc3N3CC(C)CC3(C)C)n2)C1 (stereo not shown) [Compound 1988, N—[[6-(3-methylcyclohexoxy)-2-pyridyl]sulfonyl]-2-(2,2,4-trimethylpyrrolidin-1-yl)pyridine-3-carboxamide]
27 | +++ (“+++” means <3 uM) | CC1CN(c2ncccc2C(=O)NS(=O)(=O)c2cccc(Oc3ccc4ccccc4n3)n2)C(C)(C)C1 (stereo not shown) [Compound 1989, N—[[6-(2-quinolyloxy)-2-pyridyl]sulfonyl]-2-(2,2,4-trimethylpyrrolidin-1-yl)pyridine-3-carboxamide]
28 | +++ (“+++” means <3 uM) | Cc1ccc(C)c(-c2ccc(C(=O)NS(=O)(=O)c3ccc[nH]c3=O)c(N3C[C@@H](C)CC3(C)C)n2)c1 [Compound 1990, 6-(2,5-dimethylphenyl)-N-[(2-oxo-1H-pyridin-3-yl)sulfonyl]-2-[(4S)-2,2,4-trimethylpyrrolidin-1-yl]pyridine-3-carboxamide]
